Laboratory results: article PMC11451537, “P2X7 receptors exhibit at least three modes of allosteric antagonism” (Science Advances, 2024)
Positions count from the first letter of the chain named.

Key:
rP2X7-K297V = target: T1, rP2X7-K297V (Rattus norvegicus, UniProt Q64663, K297V); experiment: TEVC inhibition dose-response, rP2X7-K297V mutant; assay type: cell-based; conditions: signals evoked by 300 μM ATP, read-out: IC50 (inhibitory potency), K297V
T1 sequence (Q64663 1-595 K297V): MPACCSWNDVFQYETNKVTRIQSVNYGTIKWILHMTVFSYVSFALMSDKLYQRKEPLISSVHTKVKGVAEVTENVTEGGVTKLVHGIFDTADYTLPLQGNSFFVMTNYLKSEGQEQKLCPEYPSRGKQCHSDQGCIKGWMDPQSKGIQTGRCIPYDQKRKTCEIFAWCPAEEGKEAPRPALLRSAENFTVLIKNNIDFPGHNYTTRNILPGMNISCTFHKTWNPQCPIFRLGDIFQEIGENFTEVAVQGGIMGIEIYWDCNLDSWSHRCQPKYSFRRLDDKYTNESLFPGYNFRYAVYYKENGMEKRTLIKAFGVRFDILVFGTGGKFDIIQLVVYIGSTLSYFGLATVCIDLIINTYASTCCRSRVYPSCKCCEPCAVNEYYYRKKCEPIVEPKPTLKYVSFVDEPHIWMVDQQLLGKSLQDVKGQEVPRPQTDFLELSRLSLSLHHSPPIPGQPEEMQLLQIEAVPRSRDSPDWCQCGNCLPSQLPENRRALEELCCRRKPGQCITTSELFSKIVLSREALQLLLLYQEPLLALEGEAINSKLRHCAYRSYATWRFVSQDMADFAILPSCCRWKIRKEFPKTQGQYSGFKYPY
From the text: Structural determination of the full-length, wild-type rP2X7 was completed using a construct previously described containing no truncations or mutations ([16]). Furthermore, the rP2X7-WT construct used for electrophysiology experiments is unmodified full-length, wild-type rP2X7 with no green fluorescent protein (GFP), protease sites, or affinity tags present. The hP2X1-WT, hP2X2-WT, hP2X3-WT, hP2X4-WT, and hP2X7-WT constructs used for electrophysiology are similarly unmodified full-length, wild-type receptor constructs with no GFP, protease sites, or affinity tags present. Mutations to the rP2X7-WT construct used for electrophysiology experiments were made directly in the pcDNA3.1x plasmid. These constructs included the following: rP2X7-K297A, rP2X7-K297G, rP2X7-K297M, rP2X7-K297Q, rP2X7-K297V, rP2X7-Y298A, rP2X7-Y298G, rP2X7-Y298V, rP2X7-Y298L, rP2X7-R316A, rP2X7-R316G, rP2X7-R316Q, rP2X7-R316H, rP2X7-F88A, rP2X7-F103A, and rP2X7-Y295A.
(§1) To evaluate the inhibitory response of an antagonist for a dilution series, an initial excitatory signal was evoked at a subtype-specific concentration of ATP. Next, the antagonist was applied at a test concentration for 60 s and then coapplied at the same test concentration of the antagonist with the identical subtype-specific concentration of ATP. The antagonized signal was then normalized against the preceding excitatory signal evoked by ATP for each individual oocyte tested. The pre- and post-antagonist signals were evoked by 10 μM ATP for hP2X1, 10 μM ATP for hP2X2, 1 μM ATP for hP2X3, 50 μM ATP for hP2X4, and 100 μM ATP for P2X7. For the K297V mutation in rP2X7, pre- and post-antagonist signals were evoked by 300 μM ATP. Each dataset was then fit to a nonlinear regression named “[inhibitor] vs. response – Variable slope (four parameters)” in GraphPad Prism 9 to produce a sigmoidal curve and afford an IC50 value. Each singular condition was used to generate an average which is reported plus or minus its SD between three discrete trials.

rP2X7 [1] = target: T2, rP2X7 (Rattus norvegicus, UniProt Q64663); experiment: TEVC recovery of current after complete inhibition (IC100), rP2X7; conditions: 120 s buffer wash, 100 μM ATP
T2 sequence (Q64663 1-595): T1 sequence (Q64663 1-595 K297V) with V297K
Protocol: Ecocyte Bioscience supplied defolliculated oocytes which were promptly resuspended in modified Barth’s solution containing the following: 88 mM NaCl, 1 mM KCl, 0.82 mM MgSO4, 0.33 mM Ca(NO3)2·4H2O, 0.41 mM CaCl2·2H2O, 2.4 mM NaHCO3, and 5 mM Hepes supplemented with amikacin 250 (mg/liter) and gentamycin (150 mg/liter). Xenopus laevis oocytes were then injected with either hP2X1 (50 nl of 100 ng/μl), hP2X2 (50 nl of 50 ng/μl), hP2X3 (50 nl of 400 ng/μl), hP2X4 (50 nl of 200 ng/μl), hP2X7 (50 nl of 10 ng/μl), or rP2X7 (50 nL of 20 ng/μl or 50 ng/μl) mRNA created from linearized full-length, wild-type or mutant pcDNA 3.1x according to the protocol provided in the mMESSAGE mMACHINE kit (Invitrogen). After injection, the oocytes were allowed to express protein for ~20 hours before recording was performed. Oocytes expressing hP2X4 were allowed to express protein for ~48 hours.
All TEVC data were acquired with an Ooctye Clamp OC-725C amplifier, pClamp 8.2 software, and a gravity-fed RSC-200 Rapid Solution Changer that flowed buffer at ~5 ml/min. For recording, Sutter filamented glass (10 cm in length with an inner diameter of 0.69 mm and an outer diameter of 1.2 mm) was used to impale oocytes and clamp the holding voltage at −60 mV. Recordings for hP2X1, hP2X2, hP2X7, and rP2X7 were performed in buffer with the following: 100 mM NaCl, 2.5 mM KCl, 0.1 mM EDTA, 0.1 mM flufenamic acid, and 5 mM Hepes at pH 7.4. Recordings for hP2X3 and hP2X4 were performed in buffer with the following: 10 mM Hepes (pH 7.4), 140 mM NaCl, 5 mM KCl, 2 mM CaCl2, 2 mM MgCl2, and 10 mM glucose. For TEVC experiments with P2X7, oocytes expressing hP2X7 or rP2X7 were facilitated with 100 μM ATP before recording the final data.
After testing an oocyte with a brief 100 μM ATP excitatory current, an antagonist is applied for 40, 120, or 240 s at IC100 calculated from IC50 values. The oocyte is then treated with 20 s of antagonist at the IC100 plus 100 μM ATP to see complete antagonism. This is followed by 120 s of washing with buffer, ending with a 20-s reapplication of 100 μM ATP. The signal after the reapplication of ATP was then compared to the initial excitatory current to afford a percentage of recovery of activation after complete antagonism. Experiments were run in triplicate. Trials were averaged and errors were reported as SD.

rP2X7 [2] = target: T2, rP2X7; experiment: TEVC inhibition dose-response (IC50), wild-type rP2X7 in Xenopus laevis oocytes; assay type: cell-based; set-up: the rP2X7-WT construct used for electrophysiology experiments is unmodified full-length, wild-type rP2X7; expressed in transfected cells; host or cells: Xenopus laevis oocytes injected with mRNA made from pcDNA3.1x; conditions: for IC100 (100% inhibitory concentration): calculated from IC50 values, concentration applied in the recovery experiments; for IC50: wild-type rP2X7, TEVC, 100 μM ATP, 60 s antagonist pre-application, mean ± SD, triplicate
From the text: as §1

SMILES	IC50 (rP2X7-K297V) [nM]	Recovery of activation (% of baseline current) (rP2X7 [1]; rP2X7, 40-s IC100 application) [%]	Recovery of activation (% of baseline current) (rP2X7 [1]; rP2X7, 120-s IC100 application) [%]	Recovery of activation (% of baseline current) (rP2X7 [1]; rP2X7, 240-s IC100 application) [%]	IC100 (100% inhibitory concentration) (rP2X7 [2]) [µM]	IC50 (rP2X7 [2]) [nM]
Clc1cccc(-c2nnnn2Cc2cccnc2)c1Cl [A438079]	110 ± 90	81 ± 5	48 ± 15	50 ± 11	6.6	550 ± 113
Clc1cccc(-n2nnnc2NCc2ccccc2Oc2ccccn2)c1Cl [A839977]	3.2 ± 0.6	67 ± 6	6.7 ± 2	1.4 ± 0.3	1	116 ± 13
O=C(NCC12CC3CC(CC(C3)C1)C2)c1cc(CCCNCCCO)ccc1Cl [AZD9056]	12 ± 1	82 ± 5	47 ± 9	29 ± 15	3	300 ± 100
CN1C(=O)CC[C@H]1C(=O)NCc1cccc(C(F)(F)F)c1Cl [GSK1482160]	1300 ± 400	69 ± 4	45 ± 6	29 ± 9	81	3600 ± 500
O=C(NCC1(N2CCN(c3ccccc3)CC2)CCOCC1)c1cccnc1Sc1ccccc1 [JNJ47965567]	21 ± 6	1.4 ± 0.2	1.6 ± 1	2 ± 1	1.3	22 ± 6
O=S(=O)(O)c1ccc(N=C2C=CC(=C(c3ccc(Nc4ccc(S(=O)(=O)O)cc4)cc3)c3ccc(Nc4ccc(S(=O)(=O)O)cc4)cc3)C=C2)cc1 [methyl blue]	4000 ± 1000	53 ± 4	15 ± 5	4 ± 1	108	4000 ± 1000
